Measured values published in patent US20100216779A1 (GLAXOSMITHKLINE LLC, priority 2007, published 2010).

Key:
Format in all cases: cell-based
[1] = tested on: NCI-H929 (multiple myeloma); assay: Inhibition of cell proliferation, CellTiter-Glo, NCI-H929; conditions: Homo sapiens, 72 h
Summary of the method: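 Cells were grown in medium with 10% FBS at 37° C, 5% CO2. Cell number was read as CellTiter-Glo luminescence (cellular ATP), with untreated wells as control.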

COLO205 (colon) = assay: Inhibition of cell proliferation, CellTiter-Glo, COLO205; conditions: Homo sapiens, COLO 205, 72 h
Summary of the method: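 Exponentially growing COLO205 cells in medium with 10% FBS were plated below 2000 cells/well at 37 °C, 5% CO2. Untreated wells served as controls.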

[2] = target: T1, IR (NIH-3T3 cells over expressing human IGF-1R or IR) (Homo sapiens, UniProt P06213); assay: IR cellular autophosphorylation (DELFIA); conditions: NIH-3T3 cells over expressing IR, insulin stimulated
T1 construct: expressed in transfected cells; host or cells: NIH-3T3 (mouse fibroblasts)
Summary of the method: (§1)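 Receptor-overexpressing NIH-3T3, 10% FBS, 37 °C; cpd 30 uM–1.5 nM × 2 h; stim IGF-1 30 ng/mL (IGF-1R) or insulin 3 ug/mL (IR), 15 min; lysate DELFIA, Eu anti-pTyr; % of stimulated signal.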

[3] = target: T2, human IGF-1R (NIH-3T3 cells over expressing human IGF-1R) (Homo sapiens, UniProt P08069); assay: IGF-1R cellular autophosphorylation (DELFIA); conditions: IGF-1 stimulated
T2 construct: expressed in transfected cells; host or cells: NIH-3T3 (mouse fibroblasts)
Summary of the method: as §1

T2 sequence (P08069 31-1367): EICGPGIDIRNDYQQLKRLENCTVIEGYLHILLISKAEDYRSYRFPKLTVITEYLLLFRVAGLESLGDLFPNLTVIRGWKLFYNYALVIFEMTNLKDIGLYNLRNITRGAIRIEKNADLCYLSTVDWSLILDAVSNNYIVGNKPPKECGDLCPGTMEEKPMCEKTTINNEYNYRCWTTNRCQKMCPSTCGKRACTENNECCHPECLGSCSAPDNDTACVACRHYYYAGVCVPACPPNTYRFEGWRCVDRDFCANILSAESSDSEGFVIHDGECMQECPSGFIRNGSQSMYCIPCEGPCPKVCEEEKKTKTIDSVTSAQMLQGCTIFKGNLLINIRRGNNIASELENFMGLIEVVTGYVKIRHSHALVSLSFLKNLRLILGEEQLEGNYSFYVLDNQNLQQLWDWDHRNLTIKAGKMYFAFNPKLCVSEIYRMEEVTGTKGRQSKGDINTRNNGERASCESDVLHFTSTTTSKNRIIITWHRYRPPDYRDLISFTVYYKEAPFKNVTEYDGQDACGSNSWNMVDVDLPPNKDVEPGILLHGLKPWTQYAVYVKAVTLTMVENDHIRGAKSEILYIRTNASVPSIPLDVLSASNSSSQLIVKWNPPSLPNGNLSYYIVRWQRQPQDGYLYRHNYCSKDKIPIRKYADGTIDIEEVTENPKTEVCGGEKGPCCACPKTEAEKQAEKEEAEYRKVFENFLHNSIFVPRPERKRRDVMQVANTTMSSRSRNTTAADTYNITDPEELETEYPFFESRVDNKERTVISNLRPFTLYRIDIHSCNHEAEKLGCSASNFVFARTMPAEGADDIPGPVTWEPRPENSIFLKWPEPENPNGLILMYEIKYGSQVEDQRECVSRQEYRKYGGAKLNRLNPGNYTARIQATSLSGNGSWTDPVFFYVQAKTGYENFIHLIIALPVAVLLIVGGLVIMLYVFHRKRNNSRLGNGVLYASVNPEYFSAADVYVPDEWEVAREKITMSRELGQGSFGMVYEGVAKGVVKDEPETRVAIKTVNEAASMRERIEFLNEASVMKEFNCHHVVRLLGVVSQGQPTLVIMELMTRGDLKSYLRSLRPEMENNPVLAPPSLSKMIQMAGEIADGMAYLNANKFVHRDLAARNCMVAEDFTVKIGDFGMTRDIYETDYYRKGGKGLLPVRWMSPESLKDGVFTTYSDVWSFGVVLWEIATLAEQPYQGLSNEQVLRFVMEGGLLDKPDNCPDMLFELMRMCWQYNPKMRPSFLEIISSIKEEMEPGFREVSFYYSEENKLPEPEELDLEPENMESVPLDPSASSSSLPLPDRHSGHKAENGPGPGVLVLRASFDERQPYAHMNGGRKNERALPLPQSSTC
T1 sequence (P06213 28-1382): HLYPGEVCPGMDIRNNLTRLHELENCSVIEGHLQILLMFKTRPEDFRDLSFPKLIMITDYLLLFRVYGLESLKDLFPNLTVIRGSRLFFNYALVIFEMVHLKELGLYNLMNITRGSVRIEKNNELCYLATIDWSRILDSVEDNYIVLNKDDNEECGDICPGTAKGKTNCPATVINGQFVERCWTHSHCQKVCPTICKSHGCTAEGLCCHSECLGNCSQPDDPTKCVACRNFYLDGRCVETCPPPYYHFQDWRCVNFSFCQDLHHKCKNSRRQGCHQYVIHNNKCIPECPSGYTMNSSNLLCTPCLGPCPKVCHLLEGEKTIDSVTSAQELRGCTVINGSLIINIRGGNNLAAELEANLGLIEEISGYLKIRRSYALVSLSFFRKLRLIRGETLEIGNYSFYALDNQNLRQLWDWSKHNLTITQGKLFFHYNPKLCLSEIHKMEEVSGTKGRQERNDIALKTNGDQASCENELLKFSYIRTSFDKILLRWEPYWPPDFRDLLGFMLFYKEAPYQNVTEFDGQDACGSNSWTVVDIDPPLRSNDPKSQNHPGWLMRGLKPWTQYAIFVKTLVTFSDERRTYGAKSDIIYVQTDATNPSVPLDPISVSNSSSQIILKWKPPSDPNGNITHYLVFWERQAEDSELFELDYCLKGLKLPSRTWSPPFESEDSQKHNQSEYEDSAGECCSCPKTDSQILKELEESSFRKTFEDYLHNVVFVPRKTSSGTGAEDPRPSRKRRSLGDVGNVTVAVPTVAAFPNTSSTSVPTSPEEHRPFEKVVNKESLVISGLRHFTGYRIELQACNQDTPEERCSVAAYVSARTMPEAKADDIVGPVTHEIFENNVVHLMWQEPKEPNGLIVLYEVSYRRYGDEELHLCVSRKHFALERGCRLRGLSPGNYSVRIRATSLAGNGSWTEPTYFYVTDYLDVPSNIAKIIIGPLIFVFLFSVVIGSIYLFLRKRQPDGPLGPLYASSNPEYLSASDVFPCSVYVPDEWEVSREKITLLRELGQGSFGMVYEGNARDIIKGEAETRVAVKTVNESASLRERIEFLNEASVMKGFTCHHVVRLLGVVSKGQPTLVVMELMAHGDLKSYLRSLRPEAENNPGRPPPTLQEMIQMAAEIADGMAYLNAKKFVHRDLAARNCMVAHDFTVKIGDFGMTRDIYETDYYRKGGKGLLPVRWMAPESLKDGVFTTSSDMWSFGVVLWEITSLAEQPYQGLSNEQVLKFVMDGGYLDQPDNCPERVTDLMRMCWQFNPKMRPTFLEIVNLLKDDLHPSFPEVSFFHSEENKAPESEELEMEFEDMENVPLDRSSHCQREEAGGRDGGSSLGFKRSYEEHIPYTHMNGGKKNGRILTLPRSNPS

| SMILES | IC50 [1] | IC50 (COLO205 (colon)) | IC50 [2] | IC50 [3] |
| --- | --- | --- | --- | --- |
| COc1cc(N2CCC(CCS(C)(=O)=O)CC2)ccc1Nc1nccc(-c2c(-c3ccc(OC)c(C(=O)Nc4c(F)cccc4F)c3)nc3ccccn23)n1 [Example 201, N-(2,6-difluorophenyl)-2-(methyloxy)-5-(3-{2-[(2-(methyloxy)-4-{4-[2-(methylsulfonyl)ethyl]-1-piperidinyl}phenyl)amino]-4-pyrimidinyl}imidazo[1,2-a]pyridin-2-yl)benzamide] | < 250 nM | 250 to 1000 nM | < 100 nM | < 100 nM |
| COc1cc(N2CCC(CCS(C)(=O)=O)CC2)ccc1Nc1nccc(-c2c(-c3cccc(C(=O)Nc4c(F)cccc4F)c3)nc3ccccn23)n1 [Example 202, N-(2,6-difluorophenyl)-3-(3-{2-[(2-(methyloxy)-4-{4-[2-(methylsulfonyl)ethyl)-1-piperidinyl}phenyl)amino]-4-pyrimidinyl]imidazo[1,2-a]pyridin-2-yl)benzamide] | < 250 nM | 250 to 1000 nM | 100 to 500 nM | 100 to 500 nM |
| CCOc1ccc(-c2nc3ccccn3c2-c2ccnc(Nc3cc(C)c(N4CCCN(CCS(C)(=O)=O)CC4)cc3OC)n2)cc1C(=O)Nc1c(F)cccc1F [Example 203, N-(2,6-difluorophenyl)-2-(ethyloxy)-5-(3-{2-[(5-methyl-2-(methyloxy)-4-{4-[2-(methylsulfonyl)ethyl)hexahydro-1H-1,4-diazepin-1-yl]phenyl)amino]-4-pyrimidinyl}imidazo[1,2-a]pyridin-2-yl)benzamide] | < 250 nM | < 250 nM | < 100 nM | < 100 nM |
| CCOc1cc(N2CCC(N3CCN(S(C)(=O)=O)CC3)CC2)c(CC)cc1Nc1nccc(-c2c(-c3ccc(OC)c(C(=O)Nc4c(F)cccc4F)c3)nc3ccccn23)n1 [Example 204, N-(2,6-difluorophenyl)-5-(3-{2-[(5-ethyl-2-(ethyloxy)-4-{4-[4-(methylsulfonyl)-1-piperazinyl]-1-piperidinyl]phenyl)amino]-4-pyrimidinyl}imidazo[1,2-a]pyridin-2-yl)-2-(methyloxy)benzamide] | < 250 nM | < 250 nM | < 100 nM | < 100 nM |
| CCc1cc(Nc2nccc(-c3c(-c4ccc(OC)c(C(=O)Nc5c(F)cccc5F)c4)nc4ccccn34)n2)c(OC)cc1N1CCC(CCS(C)(=O)=O)CC1 [Example 207, N-(2,6-difluorophenyl)-5-(3-{2-[(5-ethyl-2-(methyloxy)-4-{4-[2-(methylsulfonyl)ethyl]-1-piperidinyl}phenyl)amino]-4-pyrimidinyl}imidazo[1,2-a]pyridin-2-yl)-2-(methyloxy)benzamide] | < 250 nM | < 250 nM | < 100 nM | < 100 nM |
| CCOc1cc(N2CCC(CCS(C)(=O)=O)CC2)c(CC)cc1Nc1nccc(-c2c(-c3ccc(OC)c(C(=O)Nc4c(F)cccc4F)c3)nc3ccccn23)n1 [Example 210, N-(2,6-difluorophenyl)-5-[3-{2-[(5-ethyl-2-(ethyloxy)-4-{4-[2-(methylsulfonyl)ethyl]-1-piperidinyl}phenyl)amino]-4-pyrimidinyl}imidazo[1,2-a]pyridin-2-yl)-2-(methyloxy)benzamide] | < 250 nM | < 250 nM | < 100 nM | < 100 nM |
| CCOc1cc(N2CCN(CCS(C)(=O)=O)CC2)c(CC)cc1Nc1nccc(-c2c(-c3ccc(OCC)c(C(=O)Nc4c(F)cccc4F)c3)nc3ccccn23)n1 [Example 211, N-(2,6-difluorophenyl)-5-(3-{2-[(5-ethyl-2-(ethyloxy)-4-{4-[2-(methylsulfonyl)ethyl]-1-piperazinyl}phenyl)amino]-4-pyrimidinyl}imidazo[1,2-a]pyridin-2-yl)-2-(ethyloxy)benzamide] | < 250 nM | < 250 nM | < 100 nM | < 100 nM |
| COc1cc(N2CCN(CCS(C)(=O)=O)CC2)c(Cl)cc1Nc1nccc(-c2c(-c3ccc(OC)c(C(=O)Nc4c(F)cccc4F)c3)nc3ccccn23)n1 [Example 213, 5-(3-{2-[(5-chloro-2-(methyloxy)-4-{4-[2-(methylsulfonyl)ethyl]-1-piperazinyl}phenyl)amino]-4-pyrimidinyl}imidazo[1,2-a]pyridin-2-yl)-N-(2,6-difluorophenyl)-2-(methyloxy)benzamide] | < 250 nM | < 250 nM | < 100 nM | < 100 nM |
| CCOc1cc(N2CCC(CCS(C)(=O)=O)CC2)c(C)cc1Nc1nccc(-c2c(-c3cccc(C(=O)Nc4c(F)cccc4F)c3)nc3ccccn23)n1 [Example 221, N-(2,6-difluorophenyl)-3-(3-{2-[(2-(ethyloxy)-5-methyl-4-{4-[2-(methylsulfonyl)ethyl]-1-piperidinyl}phenyl)amino]-4-pyrimidinyl}imidazo[1,2-a]pyridin-2-yl)benzamide] | < 250 nM | 250 to 1000 nM | < 100 nM | < 100 nM |

Second part, the compound after the results:

| IC50 [1] | IC50 (COLO205 (colon)) | IC50 [2] | IC50 [3] | SMILES |
| --- | --- | --- | --- | --- |
| < 250 nM | < 250 nM | < 100 nM | < 100 nM | CCOc1cc(N2CCC(N3CCN(S(C)(=O)=O)CC3)CC2)ccc1Nc1nccc(-c2c(-c3ccc(OCC)c(C(=O)Nc4c(F)cccc4F)c3)nc3ccccn23)n1 [Example 222, N-(2,6-difluorophenyl)-2-(ethyloxy)-5-(3-{2-[(2-(ethyloxy)-4-{4-[4-(methylsulfonyl)-1-piperazinyl]-1-piperidinyl}phenyl)amino]-4-pyrimidinyl}imidazo[1,2-a]pyridin-2-yl)benzamide] |
| < 250 nM | < 250 nM | < 100 nM | < 100 nM | CCOc1cc(N2CCC(N3CCN(S(C)(=O)=O)CC3)CC2)ccc1Nc1nccc(-c2c(-c3ccc(OC)c(C(=O)Nc4c(F)cccc4F)c3)nc3ccccn23)n1 [Example 223, N-(2,6-difluorophenyl)-5-(3-{2-[(2-(ethyloxy)-4-{4-[4-(methylsulfonyl)-1-piperazinyl]-1-piperidinyl}phenyl)amino]-4-pyrimidinyl}imidazo[1,2-a]pyridin-2-yl)-2-(methyloxy)benzamide] |
| < 250 nM | 250 to 1000 nM | < 100 nM | < 100 nM | CCOc1cc(N2CCC(N3CCN(S(C)(=O)=O)CC3)CC2)ccc1Nc1nccc(-c2c(-c3cccc(C(=O)Nc4c(F)cccc4F)c3)nc3ccccn23)n1 [Example 224, N-(2,6-difluorophenyl)-3-(3-{2-[(2-(ethyloxy)-4-{4-[4-(methylsulfonyl)-1-piperazinyl]-1-piperidinyl}phenyl)amino]-4-pyrimidinyl}imidazo[1,2-a]pyridin-2-yl)benzamide] |
| < 250 nM | < 250 nM | < 100 nM | < 100 nM | COc1cc(N2CCN(S(C)(=O)=O)CC2)c(C)cc1Nc1nccc(-c2c(-c3cccc(C(=O)Nc4c(F)cccc4F)c3)nc3ccccn23)n1 [Example 226, N-(2,6-difluorophenyl)-3-{3-[2-({5-methyl-2-(methyloxy)-4-[4-(methylsulfonyl)-1-piperazinyl]phenyl}amino)-4-pyrimidinyl]imidazo[1,2-a]pyridin-2-yl}benzamide] |
| < 250 nM | < 250 nM | < 100 nM | < 100 nM | COc1cc(N2CCC(N3CCN(S(C)(=O)=O)CC3)CC2)ccc1Nc1nccc(-c2c(-c3ccc(OC(C)C)c(C(=O)Nc4c(F)cccc4F)c3)nc3ccccn23)n1 [Example 227, N-(2,6-difluorophenyl)-2-[(1-methylethyl)oxy]-5-(3-{2-[(2-(methyloxy)-4-{4-[4-(methylsulfonyl)-1-piperazinyl]-1-piperidinyl}phenyl)amino]-4-pyrimidinyl}imidazo[1,2-a]pyridin-2-yl)benzamide] |
| < 250 nM | < 250 nM | < 100 nM | < 100 nM | CCOc1ccc(-c2nc3ccccn3c2-c2ccnc(Nc3ccc(N4CCC(N5CCN(S(C)(=O)=O)CC5)CC4)cc3OC)n2)cc1C(=O)Nc1c(F)cccc1F [Example 228, N-(2,6-difluorophenyl)-2-(ethyloxy)-5-(3-{2-[(2-(methyloxy)-4-{4-[4-(methylsulfonyl)-1-piperazinyl]-1-piperidinyl}phenyl)amino]-4-pyrimidinyl}imidazo[1,2-a]pyridin-2-yl)benzamide] |
| < 250 nM | < 250 nM | < 100 nM | < 100 nM | CCOc1ccc(-c2nc3ccccn3c2-c2ccnc(Nc3cc(C)c(N4CCC(CCS(C)(=O)=O)CC4)cc3OC)n2)cc1C(=O)Nc1c(F)cccc1F [Example 229, N-(2,6-difluorophenyl)-2-(ethyloxy)-5-(3-{2-[(5-methyl-2-(methyloxy)-4-{4-[2-(methylsulfonyl)ethyl]-1-piperidinyl}phenyl)amino]-4-pyrimidinyl}imidazo[1,2-a]pyridin-2-yl)benzamide] |
| < 250 nM | < 250 nM | < 100 nM | < 100 nM | COc1cc(N2CCC(CCS(C)(=O)=O)CC2)c(C)cc1Nc1nccc(-c2c(-c3ccc(OC)c(C(=O)Nc4c(F)cccc4F)c3)nc3ccccn23)n1 [Example 230, N-(2,6-difluorophenyl)-5-(3-{2-[(5-methyl-2-(methyloxy)-4-{4-[2-(methylsulfonyl)ethyl]-1-piperidinyl}phenyl)amino]-4-pyrimidinyl}imidazo[1,2-a]pyridin-2-yl)-2-(methyloxy)benzamide] |
